# Experimental data as given in patent US20140315886A1, “QUINAZOLINES AS THERAPEUTIC COMPOUNDS AND RELATED METHODS OF USE” (OTSUKA PHARMACEUTICAL CO., LTD., priority 2011, published 2014).
# Target: T1, purified STEP46 enzyme (Homo sapiens, UniProt P54829)
# T1 sequence (P54829 197-565 limits assumed): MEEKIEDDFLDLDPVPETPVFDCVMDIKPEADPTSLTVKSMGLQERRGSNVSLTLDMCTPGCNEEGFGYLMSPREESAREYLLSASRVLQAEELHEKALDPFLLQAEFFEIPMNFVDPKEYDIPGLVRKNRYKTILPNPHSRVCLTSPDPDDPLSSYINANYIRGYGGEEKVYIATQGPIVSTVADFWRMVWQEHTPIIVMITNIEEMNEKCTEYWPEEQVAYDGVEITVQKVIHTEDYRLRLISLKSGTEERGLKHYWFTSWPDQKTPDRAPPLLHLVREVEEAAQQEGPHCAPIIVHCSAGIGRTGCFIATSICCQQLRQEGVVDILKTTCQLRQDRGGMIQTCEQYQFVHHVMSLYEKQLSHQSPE
# Experiment: STEP46 biochemical assay (DiFMUP fluorescence phosphatase assay)
# Details: DiFMUP 10 μM, read-out: STEP IC50
# How it was run: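 Purified human STEP46 preincubated 30 min at room temperature with compounds in Hepes/DTT/Brij35 buffer (2% DMSO final), then reacted with 10 μM DiFMUP for 90 min at 27°C; fluorescence read at 360/460 nm. IC50 from four-parameter fit; activation shown as negative % inhibition at 25, 50, 100 uM.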
row,Compound,IC50 [µM]
1,Fc1ccc(F)c(-c2ccc3c(N4CCc5cc(Cl)ccc54)nc(-c4cccnc4)nc3c2)c1 [Compound 109],1 to 10
2,Fc1cccc(-c2ccc3c(N4CCc5cc(Cl)ccc54)nc(-c4cccnc4)nc3c2)c1F [Compound 108],1 to 10
3,CNc1nc(-c2cccnc2)nc2ccc(-c3ccc(F)cc3C(F)(F)F)cc12 [Compound 248],> 10
4,CNc1nc(-c2cccnc2)nc2cc(F)c(-c3ccccc3OC)cc12 [Compound 593],> 10
5,CNc1nc(-c2cccnc2)nc2cc(Cl)c(-c3ccc(F)cc3F)cc12 [Compound 246],1 to 10
6,CNc1nc(-c2cccnc2)nc2ccc(-c3cccc(OCCC(C)O)c3)cc12 (stereo not drawn) [Compound 224],1 to 10
7,CC(Nc1nc(-c2cccnc2)nc2ccc(-c3cc(F)cc(F)c3)cc12)c1ccccc1 (stereo not drawn) [Compound 349],1 to 10
8,CNc1nc(-c2cccnc2)nc2cc(-c3cc(F)cc(OCC(=O)N(C)C)c3)ccc12 [Compound 143],1 to 10
9,CNc1nc(-c2cccnc2)nc2c(-c3cccc(F)c3F)ccc(OC)c12 [Compound 492],1 to 10
10,CNc1nc(-c2cccnc2)nc2c(F)cc(-c3c(F)cccc3F)cc12 [Compound 575],1 to 10
11,CNc1nc(-c2cccnc2)nc2c(OC)cc(-c3cccc(C#N)c3)cc12 [Compound 206],> 10
12,CCOc1ccc2nc(-c3cccnc3)nc(Nc3cncc(Cl)c3)c2c1 [Compound 69],< 1
13,"CNc1nc(-c2cccnc2)nc2ccc(-c3ccc4sc(C)nc4c3)cc12 [Compound 169, N-methyl-6-(2-methylbenzo[d]thiazol-5-yl)-2-(pyridin-3-yl)quinazolin-4-amine, 2HCl]",< 1

# The remaining lines, values ahead:
row,IC50 [µM],Compound
1,1 to 10,CNc1nc(-c2cnccn2)nc2cc(-c3ccc(F)cc3F)ccc12 [Compound 395]
2,1 to 10,Fc1ccc(-c2ccc3nc(-c4cccnc4)nc(Nc4ccccn4)c3c2)cc1 [Compound 437]
3,> 10,CNc1nc(-c2cccnc2)nc2ccc(-c3cnc(-c4ccccc4)s3)cc12 [Compound 464]
4,> 10,CNc1nc(-c2cccnc2)nc2c(OC)cc(-c3ccc(C#N)cc3)cc12 [Compound 260]
5,1 to 10,Fc1cncc(Nc2nc(-c3cccnc3)nc3cc(Cl)ccc23)c1 [Compound 50]
6,1 to 10,CNc1nc(-c2cccnc2)nc2c(-c3cccc(F)c3)cccc12 [Compound 274]
7,< 1,CNc1nc(-c2cccnc2)nc2ccc(-c3ccc4oc(=O)[nH]c4c3)cc12 [Compound 462]
8,1 to 10,CNc1nc(-c2cccnc2)nc2cc(-c3ccc(C#N)cc3)c(F)cc12 [Compound 559]
